In the test the target is T1, BTK (Homo sapiens, UniProt Q06187).
T1 construct: The GM01501.3 cell line endogenously expresses BTK with a HiBiT fusion tag via CRISPR knock-in at its C-terminal region; endogenous in cells; host or cells: GM01501.3 (GM01501 cells engineered by CRISPR knock-in of HiBiT at the BTK locus)
T1 sequence (Q06187 whole entry, the tested form may be a part): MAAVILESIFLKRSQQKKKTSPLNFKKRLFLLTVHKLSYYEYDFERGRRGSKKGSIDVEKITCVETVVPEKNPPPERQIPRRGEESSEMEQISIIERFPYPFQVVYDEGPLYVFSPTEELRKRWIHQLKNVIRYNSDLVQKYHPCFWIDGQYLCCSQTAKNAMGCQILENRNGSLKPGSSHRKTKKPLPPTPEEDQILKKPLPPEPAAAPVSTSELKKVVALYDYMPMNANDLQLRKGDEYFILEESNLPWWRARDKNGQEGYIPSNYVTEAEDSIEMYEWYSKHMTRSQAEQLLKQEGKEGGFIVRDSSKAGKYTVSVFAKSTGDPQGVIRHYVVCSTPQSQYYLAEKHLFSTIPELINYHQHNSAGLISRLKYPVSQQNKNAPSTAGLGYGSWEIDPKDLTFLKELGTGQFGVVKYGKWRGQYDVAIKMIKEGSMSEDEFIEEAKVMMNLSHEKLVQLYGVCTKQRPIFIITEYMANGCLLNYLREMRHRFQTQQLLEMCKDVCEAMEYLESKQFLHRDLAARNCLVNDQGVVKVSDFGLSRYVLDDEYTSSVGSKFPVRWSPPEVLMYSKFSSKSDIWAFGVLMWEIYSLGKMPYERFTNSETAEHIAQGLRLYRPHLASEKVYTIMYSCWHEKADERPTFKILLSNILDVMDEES
The experiment in a line: BTK degradation assay using the HiBiT Method (Nano-Glo HiBiT Lytic Assay, GM01501.3 cells). It counts as cell-based. The following applies: HiBiT Degradation on GM01501.3 BTK @ 6 hours. The method in brief:
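CRISPR knock-in GM01501.3 cells expressing endogenous BTK with C-terminal HiBiT tag, treated 6 h at 37 °C with compounds, 11-point half-log titration from 10 μM top, duplicates. Remaining BTK quantified by Nano-Glo HiBiT lytic luminescence versus DMSO controls; DC50 reported.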
`Cc1cc(-c2ncnn3cc(-c4ccn5cc(CN6CCC(c7ccc(C8CCC(=O)NC8=O)cc7)CC6)nc5c4)cc23)ccc1CNC(=O)c1noc(C(C)(C)C)n1` (centres unmarked) [Example 211, 5-(tert-butyl)-N-(4-(6-(2-((4-(4-(2,6-dioxopiperidin-3-yl)phenyl)piperidin-1-yl)methyl)imidazo[1,2-a]pyridin-7-yl)pyrrolo[2,1-f][1,2,4]triazin-4-yl)-2-methylbenzyl)-1,2,4-oxadiazole-3-carboxamide]: the half-maximal degradation concentration (DC50) – broadly, the concentration at which degradation of the target reaches its halfway point – was < 0.1 µM.
Next, `Cc1cc(-c2ncnn3cc(CCCCN4CCN(c5ccc(NC6CCC(=O)NC6=O)cc5)CC4)cc23)ccc1CNC(=O)c1noc(C(C)(C)C)n1` (centres unmarked) [Example 131, 5-tert-butyl-N-[[4-[6-[4-[4-[4-[(2,6-dioxo-3-piperidyl)amino]phenyl]piperazin-1-yl]butyl]pyrrolo[2,1-f][1,2,4]triazin-4-yl]-2-methyl-phenyl]methyl]-1,2,4-oxadiazole-3-carboxamide]: < 0.1 µM.
On to `Cc1cc(-c2ncnn3cc(-c4ccc(CN5CCC(c6ccc(NC7CCC(=O)NC7=O)cc6)CC5)cc4)cc23)ccc1CNC(=O)c1cnc(C(C)(C)C)o1` (centres unmarked) [Example 85, 2-tert-butyl-N-[[4-[6-[4-[[4-[4-[(2,6-dioxo-3-piperidyl)amino]phenyl]-1-piperidyl]methyl]phenyl]pyrrolo[2,1-f][1,2,4]triazin-4-yl]-2-methyl-phenyl]methyl]oxazole-5-carboxamide], for which the DC50 was < 0.1 µM.
Then `Cc1cc(-c2ncnn3cc(CCN4CCC(c5ccc(NC6CCC(=O)NC6=O)cc5)CC4)cc23)ccc1CNC(=O)c1noc(C(C)(C)C)n1` (centres unmarked) [Example 117, 5-tert-butyl-N-[[4-[6-[2-[4-[4-[(2,6-dioxo-3-piperidyl)amino]phenyl]-1-piperidyl]ethyl]pyrrolo[2,1-f][1,2,4]triazin-4-yl]-2-methyl-phenyl]methyl]-1,2,4-oxadiazole-3-carboxamide], with < 0.1 µM; and `Cc1cc(-c2ncnn3cc(N4CCN(C(=O)C5CC6(CCCN6C(=O)c6ccc(OC7CCC(=O)NC7=O)cc6)C5)CC4)cc23)ccc1CNC(=O)c1noc(C(C)(C)C)n1` (centres unmarked) [Example 186, 5-(tert-butyl)-N-(4-(6-(4-(5-(4-((2,6-dioxopiperidin-3-yl)oxy)benzoyl)-5-azaspiro[3.4]octane-2-carbonyl)piperazin-1-yl)pyrrolo[2,1-f][1,2,4]triazin-4-yl)-2-methylbenzyl)-1,2,4-oxadiazole-3-carboxamide], with < 0.1 µM.

The values are drawn from patent US20240287076A1, “COMPOUNDS FOR TARGETING DEGRADATION OF BRUTON'S TYROSINE KINASE” (BIOGEN MA INC., priority 2021, published 2024).
